# Results published in ChEMBL document CHEMBL3727346, “6-(pyridinyl)-4-pyrimidone derivates as tau protein kinase 1 inhibitors” (2011).
# The source made the active and inactive calls. The rule behind the calls is not given here.
# Molecular target: Glycogen synthase kinase-3 beta splice variant X1 (Bos taurus) (UniProt A0A059UE90)
# Assay: Inhibition of bovine cerebral TPK1 assessed as reduction in P-GS1 phosphorylation using [32gammaP]ATP incubated for 2 hrs by liquid scintillation counting method
row,SMILES,inhibition
1,CN(c1ccc([C@H]2CN(c3nc(-c4ccncc4F)cc(=O)n3C)CCO2)cc1)C1CCCCC1,Active
2,Cn1c(N2CCN[C@@H](c3ccc(-c4ccc(C#N)cc4)cc3)C2)nc(-c2ccncc2F)cc1=O,Active
3,Cn1c(N2CCO[C@@H](c3ccc(N4CCN(CCO)C4=O)cc3)C2)nc(-c2ccncc2F)cc1=O,Active
4,Cn1c(N2CCO[C@@H](c3ccc(C(=O)NCc4ccccc4)cc3)C2)nc(-c2ccncc2F)cc1=O,Active
5,Cn1c(N2CCO[C@@H](c3ccc(NC(=O)N4CCOCC4)cc3)C2)nc(-c2ccncc2F)cc1=O,Active
6,CN(C)c1cccc2c(S(=O)(=O)Nc3ccc([C@H]4CN(c5nc(-c6ccncc6F)cc(=O)n5C)CCO4)cc3)cccc12,Active
7,Cn1c(N2CCN[C@@H](c3ccc(-c4ccc(S(C)(=O)=O)cc4)cc3)C2)nc(-c2ccncc2F)cc1=O,Active
8,Cn1c(N2CCOC(c3ccccc3OCCCN)C2)nc(-c2ccncc2F)cc1=O (stereo not given),Active
9,Cn1c(N2CCO[C@@H](c3ccc(NC4C5CC6CC(C5)CC4C6)cc3)C2)nc(-c2ccncc2F)cc1=O (stereo not given in full),Active
10,Cn1c(N2CCO[C@@H](c3ccc(NC(=O)C4CC4)cc3)C2)nc(-c2ccncc2F)cc1=O,Active
11,Cn1c(N2CCO[C@@H](c3ccc(N4CC[C@@H](N5CCCCC5)C4)cc3)C2)nc(-c2ccncc2F)cc1=O,Active
12,COc1ccc([C@H]2CN(c3nc(-c4ccncc4F)c(Br)c(=O)n3C)CCO2)cc1,Active
13,Cn1c(N2CCNC(c3ccc(-c4ncon4)cc3)C2)nc(-c2ccncc2F)cc1=O (stereo not given),Active
14,COc1ccc(C(C)(C)O)cc1[C@H]1CN(c2nc(-c3ccncc3F)cc(=O)n2C)CCO1,Active
15,CN(C)c1ccc([C@H]2CN(c3nc(-c4ccncc4F)cc(=O)n3C)CCN2)cc1,Active
16,Cn1c(N2CCO[C@@H](c3ccc(OCCN4CCN(C(=O)c5ccccc5)CC4)cc3)C2)nc(-c2ccncc2F)cc1=O,Active
17,Cn1c(N2CCO[C@@H](c3ccc(NS(=O)(=O)Cc4ccccc4)cc3)C2)nc(-c2ccncc2F)cc1=O,Active
18,CN1CCN(CC(=O)Nc2ccc([C@H]3CN(c4nc(-c5ccncc5F)cc(=O)n4C)CCO3)cc2)CC1,Active
19,Cn1c(N2CCO[C@@H](c3ccc(N(C(=O)c4ccccc4)C4CCCCC4)cc3)C2)nc(-c2ccncc2F)cc1=O,Active
20,COc1ccc(C2(O)CCN(C)CC2)cc1[C@H]1CN(c2nc(-c3ccncc3F)cc(=O)n2C)CCO1,Active
21,COc1ccc(N)cc1[C@H]1CN(c2nc(-c3ccncc3F)cc(=O)n2C)CCO1,Active
22,Cn1c(N2CCN[C@@H](c3ccc(-c4ccc(Cl)cc4)cc3)C2)nc(-c2ccncc2F)cc1=O,Active
23,Cn1c(N2CCO[C@@H](c3ccc(N4CCC(O)CC4)cc3)C2)nc(-c2ccncc2F)cc1=O,Active
24,CC(C)c1ccc([C@H]2CN(c3nc(-c4ccncc4F)cc(=O)n3C)CCO2)cc1,Active
25,Cn1c(N2CCN[C@@H](c3ccc(N4CCC(N5CCCCC5)CC4)cc3)C2)nc(-c2ccncc2F)cc1=O,Active
26,Cn1c(N2CCO[C@@H](c3ccc(N4CCC(N5CCCCC5)CC4)cc3)C2)nc(-c2ccncc2F)cc1=O,Active
27,Cn1c(N2CCO[C@@H](c3ccc([N+](=O)[O-])cc3)C2)nc(-c2ccncc2F)cc1=O,Active

row,SMILES,inhibition
1,Cn1c(N2CCO[C@@H](c3ccc(N4CCCCC4=O)cc3)C2)nc(-c2ccncc2F)cc1=O,Active
2,COc1ccc(NC(=O)C2CC2)cc1[C@H]1CN(c2nc(-c3ccncc3F)cc(=O)n2C)CCO1,Active
3,COc1cc(Cl)ccc1[C@H]1CN(c2nc(-c3ccncc3F)cc(=O)n2C)CCO1,Active
4,Cn1c(N2CCN[C@@H](c3ccc(-c4ccc(C(C)(C)C)cc4)cc3)C2)nc(-c2ccncc2F)cc1=O,Active
5,Cn1c(N2CCO[C@@H](c3ccc(NC(=O)CN4CCCCC4)cc3)C2)nc(-c2ccncc2F)cc1=O,Active
6,Cn1c(N2CCN[C@@H](c3ccc(N4CCOCC4)cc3)C2)nc(-c2ccncc2F)cc1=O,Active
7,Cn1c(N2CCO[C@@H](c3ccc(F)c(N)c3)C2)nc(-c2ccncc2F)cc1=O,Active
8,Cn1c(N2CCN[C@H](c3ccc(C#N)cc3)C2)nc(-c2ccncc2F)cc1=O,Active
9,Cn1c(N2CCN[C@@H](c3ccc(-c4ccc(OCC5CC5)cc4)cc3)C2)nc(-c2ccncc2F)cc1=O,Active
10,COc1ccc(-c2ccc([C@H]3CN(c4nc(-c5ccncc5F)cc(=O)n4C)CCN3)cc2)cc1OC,Active
11,Cn1c(N2CCO[C@@H](c3ccc(OC4CCCC4)cc3)C2)nc(-c2ccncc2F)cc1=O,Active
12,CN(C)CCOc1ccc([C@H]2CN(c3nc(-c4ccncc4F)cc(=O)n3C)CCO2)cc1,Active
13,Cn1c(N2CCO[C@@H](c3ccc(NC(=O)CN4CCOCC4)cc3)C2)nc(-c2ccncc2F)cc1=O,Active
14,CCN(CC)Cc1ccc([C@H]2CN(c3nc(-c4ccncc4F)cc(=O)n3C)CCO2)cc1,Active
15,C[C@@H]1CN(c2ccc([C@H]3CN(c4nc(-c5ccncc5F)cc(=O)n4C)CCN3)cc2)C[C@H](C)N1,Active
16,CN1CCN(c2ccc([C@H]3CN(c4nc(-c5ccncc5F)cc(=O)n4C)CCN3)cc2)CC1,Active
17,CN(C)[C@@H]1CCN(c2ccc([C@H]3CN(c4nc(-c5ccncc5F)cc(=O)n4C)CCO3)cc2)C1,Active
18,Cn1c(N2CCO[C@@H](c3ccc(N(c4ccccn4)c4ccccn4)cc3)C2)nc(-c2ccncc2F)cc1=O,Active
19,Cn1c(N2CCO[C@@H](c3ccc(N4CCCC4)cc3)C2)nc(-c2ccncc2F)cc1=O,Active
20,C[C@@H]1CN(c2ccc([C@H]3CN(c4nc(-c5ccncc5F)cc(=O)n4C)CCN3)cc2)C[C@H](C)O1,Active
21,COc1cc(N(C)C)ccc1[C@H]1CN(c2nc(-c3ccncc3F)cc(=O)n2C)CCO1,Active
22,Cn1c(N2CCO[C@@H](c3ccc(NC4CCCC4)cc3)C2)nc(-c2ccncc2F)cc1=O,Active
23,CN(C)c1ccc([C@H]2CN(c3nc(-c4ccncc4F)cc(=O)n3C)CCO2)cc1,Active
24,CN(C)[C@H]1CCN(c2ccc([C@H]3CN(c4nc(-c5ccncc5F)cc(=O)n4C)CCO3)cc2)C1,Active
25,Cn1c(N2CCO[C@@H](c3ccc(CO)cc3)C2)nc(-c2ccncc2F)cc1=O,Active
26,CN(c1ccc([C@H]2CN(c3nc(-c4ccncc4F)cc(=O)n3C)CCO2)cc1)C1C2CC3CC(C2)CC1C3 (stereo not given in full),Active
27,Cn1c(N2CCO[C@@H](c3ccc(N(CC(F)(F)F)CC(F)(F)F)cc3)C2)nc(-c2ccncc2F)cc1=O,Active

row,SMILES,inhibition
1,Cn1c(N2CCO[C@@H](c3ccc(Nc4cccnc4)cc3)C2)nc(-c2ccncc2F)cc1=O,Active
2,Cn1c(N2CCO[C@@H](c3ccc(NS(=O)(=O)c4ccccc4)cc3)C2)nc(-c2ccncc2F)cc1=O,Active
3,Cn1c(N2CCNC(c3ccc(N4CCN(C(=O)OCc5ccccc5)CC4)cc3)C2)nc(-c2ccncc2F)cc1=O (stereo not given),Active
4,CCOc1ccc(-c2ccc([C@H]3CN(c4nc(-c5ccncc5F)cc(=O)n4C)CCN3)cc2)cc1,Active
5,CN(c1ccc([C@H]2CN(c3nc(-c4ccncc4F)cc(=O)n3C)CCN2)cc1)C1CCCCC1,Active
6,Cn1c(N2CCO[C@@H](c3ccc(N(C4CCCCC4)S(C)(=O)=O)cc3)C2)nc(-c2ccncc2F)cc1=O,Active
7,CN(C)C(=O)c1ccc([C@H]2CN(c3nc(-c4ccncc4F)cc(=O)n3C)CCO2)cc1,Active
8,Cn1c(N2CCN[C@@H](c3ccc(-c4ccc(Cl)cc4Cl)cc3)C2)nc(-c2ccncc2F)cc1=O,Active
9,Cn1c(N2CCO[C@@H](c3ccc(N4CCNC4=O)cc3)C2)nc(-c2ccncc2F)cc1=O,Active
10,Cn1c(N2CCO[C@@H](c3ccc(N4CCCNC4=O)cc3)C2)nc(-c2ccncc2F)cc1=O,Active
11,Cn1c(N2CCO[C@@H](c3ccc(OC[C@@H](O)CN4CCCC4)cc3)C2)nc(-c2ccncc2F)cc1=O,Active
12,Cn1c(N2CCO[C@@H](c3ccc(N4CCC(O)C4)cc3)C2)nc(-c2ccncc2F)cc1=O (stereo not given in full),Active
13,Cn1c(N2CCO[C@@H](c3ccc(N4CCC[C@H]5CCCC[C@@H]54)cc3)C2)nc(-c2ccncc2F)cc1=O,Active
14,Cn1c(N2CCO[C@@H](c3ccc(NC(=S)Nc4cccnc4)cc3)C2)nc(-c2ccncc2F)cc1=O,Active
15,Cn1c(N2CCO[C@@H](c3ccc(C(=O)NC4CCCCC4)cc3)C2)nc(-c2ccncc2F)cc1=O,Active
16,Cn1c(N2CCO[C@@H](c3ccc(N4CC[C@H](N5CCOCC5)C4)cc3)C2)nc(-c2ccncc2F)cc1=O,Active
17,Cn1c(N2CCO[C@@H](c3ccc(N4CC[C@H](N5CCCC5)C4)cc3)C2)nc(-c2ccncc2F)cc1=O,Active
18,Cn1c(N2CCN[C@@H](c3ccc(N4CCC(O)C4)cc3)C2)nc(-c2ccncc2F)cc1=O (stereo not given in full),Active
19,Cn1c(N2CCO[C@@H](c3cccc(NS(C)(=O)=O)c3)C2)nc(-c2ccncc2F)cc1=O,Active
20,COc1ccc([C@H]2CN(c3nc(-c4ccncc4F)cc(=O)n3C)CCO2)cc1,Active
21,Cn1c(N2CCO[C@@H](c3ccc(OCCCN4CCOCC4)cc3)C2)nc(-c2ccncc2F)cc1=O,Active
22,CC1CC1C(=O)Nc1ccc([C@H]2CN(c3nc(-c4ccncc4F)cc(=O)n3C)CCO2)cc1 (stereo not given in full),Active
23,Cn1c(N2CCO[C@@H](c3ccc(OC4CCCCC4)cc3)C2)nc(-c2ccncc2F)cc1=O,Active
24,C[C@@H]1CN(c2ccc([C@H]3CN(c4nc(-c5ccncc5F)cc(=O)n4C)CCO3)cc2)C[C@H](C)N1,Active
25,CC(C)N1CCN(c2ccc([C@H]3CN(c4nc(-c5ccncc5F)cc(=O)n4C)CCN3)cc2)CC1,Active
26,CC(C)c1ccc(-c2ccc([C@H]3CN(c4nc(-c5ccncc5F)cc(=O)n4C)CCN3)cc2)cc1,Active
